Assays:
[1] = molecular target: human prothrombin (Homo sapiens, UniProt P00734); settings: read-out: apparent Kd; cited from earlier work
[2] = tested on: clot formation in normal human platelet poor plasma; test: Prothrombin time (PT) plasma clotting assay; type: biochemical; settings: for increase of PT clotting time: 4 μM aptamer
Protocol: (§1) The activated partial thromboplastin time (aPTT) and prothrombin time (PT) assays were performed on a model ST4 mechanical coagulometer (Diagnostica Stago, Parsippany, N.J.) as previously described (Bompiani et al, J Thromb Haemost 10:870-80 (2012)). For the aPTT, 50 μL of normal human platelet poor plasma (PPP) was incubated with 50 μL TriniClot aPTT S (Trinity BioTech, Bray, Co Wicklow, Ireland) at 37° C. for 5 min. Aptamer(s) (5 μL) was added, and the mixture was incubated at 37° C. for another 5 min, and CaCl2 (50 μL) was added to initiate the assay. For the PT, 50 μL of normal human PPP was incubated with 5 μL of aptamer(s) at 37° C. for 5 min. TriniClot PT Excel reagent (Trinity BioTech, Bray, Co Wicklow, Ireland) (100 μL) was added to initiate the reaction. Assays with a combination of two aptamers contain an equimolar concentration of each individual aptamer, and the data shown are the total RNA concentration.
(§2) To compare the anticoagulant effect of these four aptamers, dose-response titrations were performed in several clinical plasma-based clotting assays. The activated partial thromboplastin time (aPTT) and prothrombin time (PT) are plasma clotting assays that are clinically used to probe for abnormalities in the intrinsic and extrinsic coagulation pathways, respectively (Van Cott et al, editors. Jacobs & DeMott laboratory test handbook. 5th ed. Hudson Ohio: Lexi-Comp. p. 327-58 (2001)). These relatively simple assays measure the time until clot formation in platelet poor plasma (PPP) in response to either robust tissue factor (TF), or contact stimulation via negatively charged surfaces (i.e., silica, kaolin, celite). […] At high concentrations, the prothrombin aptamer (R9D-14T) was the most robust anticoagulant and inhibited greater than 96% of prothrombin activity in the aPTT and PT. At 4 μM, R9D-14T increased the aPTT clotting time approximately 18-fold and the PT clotting time greater than 80-fold (exceeded the assay limit of 999 sec). […] At the same dose, the FIXa aptamer (9.3T) inhibited greater than 99% of FIX activity and increased the aPTT clotting time approximately 5.5-fold, while the FVIIa aptamer (7S-1) increased the PT clotting time 3-fold and inhibited greater than 99% of FVII activity (FIGS. 20A and 20B).

[3] = tested on: clot formation in normal human platelet poor plasma; test: Activated partial thromboplastin time (aPTT) plasma clotting assay; type: biochemical; settings: for increase of aPTT clotting time: 4 μM aptamer
Protocol: as §1, §2

[4] = tested on: clot formation in whole blood; test: TEG of whole blood, coagulation triggered by tissue factor (Example I); type: cell-based; settings: TF; for clot formation (in words): FVIIa aptamer 0.5, FIXa aptamer 1.0, FXa aptamer 1.0 micromolar
Protocol: TEG is a waveform generated from serial measurements of the torque transmitted from a small oscillating cup to the tip of a metal pin inserted into the cup by a 360 microliter sample of blood or plasma added to the cup.
A 360 microliter blood sample has been added to the cup. For 180 minutes after the sample is added, the cup oscillates alternatively clockwise and counterclockwise through an arc of 4° 45′ at a frequency of one oscillation cycle—i. e., one clockwise rotation and one counterclockwise rotation—every 10 seconds. The lower end of the pin is immersed by the sample; the upper end is suspended from a torsion wire. The TEG analyzer records a single measurement of rotation-induced torque after each clockwise rotation and after each counterclockwise rotation of the cup. “The torque of the rotating cup is transmitted to the immersed pin only after fibrin-platelet bonding has linked the cup and [the] pin together. The strength of these fibrin-platelet bonds affects the magnitude of the pin motion, such that strong clots move the pin directly in phase with the cup motion. Thus, the magnitude of the output is directly related to the strength of the formed clot . . . . [If] the clot retracts or lyses, these bonds are broken and the transfer of cup motion is diminished. The rotation movement of the pin is converted by a mechanical-electrical transducer to an electrical signal which can be monitored by a computer” (TEG 5000 User Manual, pp 3-4, 1999-2007)). The computer converts the series of electrical signals into the TEG tracing.

[5] = molecular target: T1, FIXa (Homo sapiens, UniProt P00740); settings: clinical studies; cited from earlier work
T1 construct: host or cells: circulating blood of trial subjects (endogenous protein)
T1 sequence (P00740 227-461 limits assumed): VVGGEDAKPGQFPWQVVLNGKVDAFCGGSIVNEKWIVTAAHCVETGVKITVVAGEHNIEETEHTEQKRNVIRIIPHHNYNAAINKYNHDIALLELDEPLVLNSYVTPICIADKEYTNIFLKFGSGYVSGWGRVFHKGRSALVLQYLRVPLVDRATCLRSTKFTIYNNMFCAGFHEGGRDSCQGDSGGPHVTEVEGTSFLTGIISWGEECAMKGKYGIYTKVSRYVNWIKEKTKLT
T1 sequence (P00740 47-191 partner limits assumed): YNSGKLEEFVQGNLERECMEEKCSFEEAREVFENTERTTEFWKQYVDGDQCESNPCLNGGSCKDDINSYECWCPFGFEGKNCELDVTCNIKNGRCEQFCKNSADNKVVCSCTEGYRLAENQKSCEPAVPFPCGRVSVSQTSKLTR

[6] = Cardiopulmonary bypass on a juvenile pig; type: in vivo; settings: 3-hr period of CPB
[7] = aptamer/antidote pair; neonatal porcine cardiopulmonary bypass; cited from earlier work
[8] = tested on: whole blood; test: Isolated 25-mL oxygenator circuit (Example II); settings: 2 micromolar
Protocol: FIG. 18 is a photograph of the isolated 25-mL oxygenator circuit, the principal components of which are a 5-mL venous reservoir, a custom-designed polypropylene membrane oxygenator, segments of 1.6 mm internal diameter silicone tubing that connect the oxygenator with the reservoir, and a small roller pump. The oxygenator is constructed of two 10 cm×10 cm rectangular Plexiglas® shells that surround and hold a 9.5 cm×9.5 cm×1 mm polypropylene membrane. Its priming volume is 4 mL. The pump circulates the blood continuously from the reservoir through the oxygenator and back to the reservoir.
Unpublished experiments have shown that the thrombogenicity of the isolated 25-mL oxygenator circuit resembles the thrombogenicity of a CPB circuit. […] Clot formation occurred approximately 30 minutes after circulation was started. […] In contrast, UFH 5, U/mL, as well as the combination of RNA9.3t, RNA11F7t, and thrombin aptamer both prevented clot formation in blood circulated for 2 hours in the isolated circuit.

Substance | Kd [1] [µM] | increase of PT clotting time [2] | PT clotting time ([2]; 4 μM, assay limit 999 sec) [s] | prothrombin activity inhibited ([2]; PT, high concentrations) | increase of aPTT clotting time [3] | prothrombin activity inhibited ([3]; aPTT, high concentrations) | MA ([4]; 1.0 micromolar, buffer 69.7 mm) [mm] | R, lag time ([4]; 1.0 micromolar, buffer 4.4 minutes) [min] | α ([4]; 1.0 micromolar, buffer about 55 degrees) [degrees] | clot formation (in words) [4] | FIXa activity inhibited in vivo [5] | anticoagulation during CPB (in words) [6] | anticoagulation in CPB model (in words) [7] | clot formation in isolated oxygenator circuit (in words) [8] | time of clot formation after circulation was started [8]
R9D-14T: prothrombin/thrombin aptamer, 58-base truncation of RNA9D-14, SEQ ID NO: 3 (GGCGGTCGATCACACAGTTCAAACGTAATAAGCCAATGTACGAGGCAGACGACTCGCC; 2'-fluoro at CT, RNA at AG, backbone and T or U not given here) [Aptamer R9D-14T] | 0.01 | greater than 80 fold | > 999 | greater than 96% | approximately 18 fold | greater than 96% | – | – | – | – | – | – | – | – | –
11F7T: FXa aptamer, 2'-fluoropyrimidine modified RNA, SEQ ID NO: 2 (GAGAGCCCCAGCGAGAUAAUACUUGGCCCCGCUCUU; 2'-fluoro at CU, RNA at AG, backbone not given here) [Aptamer 11F7T] | – | approximately 8 fold | – | – | approximately 11 fold | – | 59.5 | 17.8 | 24 | did not prevent the ultimate development of clot | – | – | – | – | –
9.3T: FIXa aptamer, 2'-fluoropyrimidine modified RNA, SEQ ID NO: 1 (AUGGGGACUAUACCGCGUAAUGCUGCCUCCCCAU; 2'-fluoro at CU, RNA at AG, backbone not given here) [Aptamer 9.3T] | – | – | – | – | approximately 5.5 fold | – | – | – | – | none of those aptamers prevented clot formation | greater than 99% | failed to effect satisfactory anticoagulation | sufficiently anticoagulated blood | failed to prevent clot formation | approximately 30 minutes
